Columns and labels:
rat [1] = settings: cited from earlier work
rat [2] = experiment: Acute oral LD50; assay type: in vivo; settings: vs. MDA
Text: Except for BAX, the advantages of these diamines include low cost (<$50/pound) as well as low toxicity. […] (ADD IN FNOTE 19) Table I compares the toxicological data of MDA vs. That of Bisaninine-P and Bisaniline-M. In addition, the Ames Mutagenicity Assays for Bisaniline-P and Bisaniline-M were negative with and without metabolic activation. (ID)

[3] = with and without metabolic activation; cited from earlier work
rat [4] = settings: cited from earlier work; remark: listed apart in the source
[5] = cited from earlier work; for Carcinogenicity: animals, where stated; for Toxicity: in vivo
Solubility in methanol = assay type: physicochemical
Text: A matrix of polyirnide copolymers was synthesized by using Bisaniline-P, Bisaniline-M, and paraphenylenediamine (PPDA). Partial molar substitutions of PPDA (up to 50 mole percent) were used in order to increase glass transition temperatuer and/or thermal oxidative stability. Pre-polymer molecular weight was also adjusted to favorably impact processing parameters as well as the final Tg. Each copolymer was formulated at a molar ratio of 2 NE: 2 BTDE: 3 Diamine. All of the resin systems were synthesized using standard techniques known in the industry. In some of the BIS-P formulations, n-methylpyrrilidinone (NMP) was used as a solvent in addition to methanol. This was done in order to maintain the solubility of the fairly large molecular-weight BIS-P diamine. […] A detailed description of the low-toxicity polyimnide systems that were developed is shown below in Table IV.

rabbit skin = settings: cited from earlier work

Structure (SMILES) | Acute Oral LD50 (rat [1]) | Acute oral LD50 compared with that of MDA (rat [2]) | Ames Mutagenicity Assay [3] | Acute Dermal LD50 (rat [4]) | Carcinogenicity [5] | Human carcinogenicity ([5]; human) | Toxicity [5] | Solubility in methanol (Solubility in methanol) | Skin irritation (printed in the Acute Dermal LD50 line) (rabbit skin)
CC(C)(c1ccc(N)cc1)c1ccc(C(C)(C)c2ccc(N)cc2)cc1 [BIS-P, 4,4'-(1,4-phenylene-bis(1-methylethylidene))bisaniline] | > 5,000 mg/kg | more than ten times higher | negative | > 2,000 mg/kg |  |  |  |  | 
Nc1ccc(Cc2ccc(N)cc2)cc1 [MDA, 4,4'-methylenedianiline, reference compound] | 347 mg/kg |  |  | 200 mg/kg | known animal carcinogen | suspected human carcinogen | known kidney and liver toxin |  | 
CC(C)(c1ccc(Oc2ccc(N)cc2)cc1)c1ccc(Oc2ccc(N)cc2)cc1 [BAPP, 2,2-bis(4-[4-aminophenoxyl]phenyl) propane] |  |  |  |  | non-carcinogenic |  | non-toxic |  | 
CC(C)(c1ccc(N)cc1)c1cccc(C(C)(C)c2ccc(N)cc2)c1 [BIS-M, 4,4'-(1,3-phenylene-bis(1-methylethylidene))bisaniline] | 6,240 mg/kg | more than ten times higher | negative |  |  |  |  | readily soluble | Non-irritating
Nc1ccc(N)cc1 [PPDA, para-phenylenediamine] |  |  |  |  | no carcinogenic activity in animals |  |  |  | 
